Activity calls are given as the source filed them.
Key:
[1] = target: T1, Long-chain-fatty-acid--AMP ligase FadD28 (Mycobacterium tuberculosis, UniProt P9WQ59); assay: Fluorescence polarization aasay to screen for inhibitors that compete for the binding of FadD28 to a bisubstrate Measured in Biochemical System Using Plate Reader - 2147-01_Inhibitor_Dose_CherryPick_Activity.; format: functional, Mycobacterium tuberculosis H37Rv
T1 sequence (P9WQ59 whole entry): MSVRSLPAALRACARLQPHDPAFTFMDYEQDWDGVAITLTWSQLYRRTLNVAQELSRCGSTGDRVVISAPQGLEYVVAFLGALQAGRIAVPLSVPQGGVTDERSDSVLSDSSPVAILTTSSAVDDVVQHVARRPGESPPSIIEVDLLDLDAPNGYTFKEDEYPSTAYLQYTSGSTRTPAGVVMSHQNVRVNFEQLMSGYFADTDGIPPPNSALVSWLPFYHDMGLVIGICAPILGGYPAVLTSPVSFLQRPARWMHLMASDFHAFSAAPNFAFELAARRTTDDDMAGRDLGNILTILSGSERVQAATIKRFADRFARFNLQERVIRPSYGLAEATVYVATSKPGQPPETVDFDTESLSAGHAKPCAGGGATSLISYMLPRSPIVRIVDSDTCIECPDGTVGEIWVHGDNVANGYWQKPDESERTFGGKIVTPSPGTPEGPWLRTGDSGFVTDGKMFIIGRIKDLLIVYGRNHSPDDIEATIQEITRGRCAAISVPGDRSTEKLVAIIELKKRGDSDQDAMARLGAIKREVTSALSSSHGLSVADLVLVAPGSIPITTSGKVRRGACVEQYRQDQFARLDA

[2] = target: Potassium voltage-gated channel subfamily KQT member 2 (Rattus norvegicus, UniProt O88943, W236L); assay: KCNQ2 channel potentiators, dose response, mechanism study for KCNQ2 potentiator project, cell-based, automated electrophysiology (AID 2603); format: functional
Sequence of Potassium voltage-gated channel subfamily KQT member 2 (O88943 whole entry W236L): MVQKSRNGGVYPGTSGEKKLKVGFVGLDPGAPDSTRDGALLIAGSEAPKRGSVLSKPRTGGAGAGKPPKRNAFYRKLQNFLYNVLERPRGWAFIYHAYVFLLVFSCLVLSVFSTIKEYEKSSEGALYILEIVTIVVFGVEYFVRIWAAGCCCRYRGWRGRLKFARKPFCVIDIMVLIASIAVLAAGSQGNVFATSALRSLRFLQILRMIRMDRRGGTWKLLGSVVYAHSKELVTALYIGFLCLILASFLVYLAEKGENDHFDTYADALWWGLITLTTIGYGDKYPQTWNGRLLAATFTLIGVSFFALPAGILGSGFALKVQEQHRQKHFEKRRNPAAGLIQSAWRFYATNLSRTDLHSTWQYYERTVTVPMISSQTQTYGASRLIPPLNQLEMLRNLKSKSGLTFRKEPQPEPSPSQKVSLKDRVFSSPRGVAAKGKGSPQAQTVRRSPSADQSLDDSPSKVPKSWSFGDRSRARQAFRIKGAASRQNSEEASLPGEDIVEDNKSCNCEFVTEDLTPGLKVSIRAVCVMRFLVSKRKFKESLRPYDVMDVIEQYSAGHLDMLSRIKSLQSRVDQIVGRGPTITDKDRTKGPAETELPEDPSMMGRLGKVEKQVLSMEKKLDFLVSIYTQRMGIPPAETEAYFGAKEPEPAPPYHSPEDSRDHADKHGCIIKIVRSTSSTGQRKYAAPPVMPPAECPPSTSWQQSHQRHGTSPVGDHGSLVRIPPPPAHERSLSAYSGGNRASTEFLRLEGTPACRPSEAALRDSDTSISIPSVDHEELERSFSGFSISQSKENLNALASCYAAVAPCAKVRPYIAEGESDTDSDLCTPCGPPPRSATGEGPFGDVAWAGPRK

[3] = microbe, parasite or virus in culture; format: functional; conditions: Mycobacterium tuberculosis
[4] = A High Throughput Confirmatory Assay used to Identify Novel Compounds that Inhibit Mycobacterium Tuberculosis in the absence of Glycerol.; format: functional
[5] = target: Protein-tyrosine kinase 2-beta (Homo sapiens, UniProt Q14289);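 also: potency of inhibitors of PYK2 kinase phosphorylation of poly-GT substrate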
Sequence of Protein-tyrosine kinase 2-beta (Q14289 whole entry): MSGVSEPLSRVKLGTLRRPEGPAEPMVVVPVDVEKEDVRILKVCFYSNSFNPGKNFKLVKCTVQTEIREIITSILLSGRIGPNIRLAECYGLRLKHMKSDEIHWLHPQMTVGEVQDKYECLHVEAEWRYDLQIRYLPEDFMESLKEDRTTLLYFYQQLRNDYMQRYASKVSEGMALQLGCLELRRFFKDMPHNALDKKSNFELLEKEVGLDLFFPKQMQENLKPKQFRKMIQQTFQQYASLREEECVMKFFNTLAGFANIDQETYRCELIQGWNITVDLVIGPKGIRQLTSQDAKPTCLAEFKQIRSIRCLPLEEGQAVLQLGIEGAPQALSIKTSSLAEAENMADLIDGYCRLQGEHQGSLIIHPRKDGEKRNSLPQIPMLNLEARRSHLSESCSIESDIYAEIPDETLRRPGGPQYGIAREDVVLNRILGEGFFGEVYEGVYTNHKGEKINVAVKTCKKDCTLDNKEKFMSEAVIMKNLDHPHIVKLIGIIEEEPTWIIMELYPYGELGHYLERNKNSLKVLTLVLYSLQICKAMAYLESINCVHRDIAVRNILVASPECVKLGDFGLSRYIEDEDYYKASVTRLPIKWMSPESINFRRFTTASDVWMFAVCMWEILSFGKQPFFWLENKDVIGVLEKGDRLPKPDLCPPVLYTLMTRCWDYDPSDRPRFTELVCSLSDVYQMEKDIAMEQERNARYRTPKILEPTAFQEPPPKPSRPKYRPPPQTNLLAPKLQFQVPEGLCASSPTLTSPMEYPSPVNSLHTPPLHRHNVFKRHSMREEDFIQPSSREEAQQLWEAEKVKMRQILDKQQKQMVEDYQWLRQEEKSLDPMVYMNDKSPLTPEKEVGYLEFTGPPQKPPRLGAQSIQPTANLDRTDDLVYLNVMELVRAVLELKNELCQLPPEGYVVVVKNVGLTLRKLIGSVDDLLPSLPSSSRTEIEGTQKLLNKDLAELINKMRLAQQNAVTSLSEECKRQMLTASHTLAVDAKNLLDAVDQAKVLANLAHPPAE

[6] = target: T2, Neuropeptide Y receptor type 2 (Homo sapiens, UniProt P49146); format: functional, cell-based;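 also: HEK293 cells expressing the receptor and a CNG channel; stimulus was NPY near EC95 followed by isoproterenol to raise cAMP; antagonist potency measured as restoring cAMP signal that NPY suppresses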
T2 sequence (P49146 whole entry): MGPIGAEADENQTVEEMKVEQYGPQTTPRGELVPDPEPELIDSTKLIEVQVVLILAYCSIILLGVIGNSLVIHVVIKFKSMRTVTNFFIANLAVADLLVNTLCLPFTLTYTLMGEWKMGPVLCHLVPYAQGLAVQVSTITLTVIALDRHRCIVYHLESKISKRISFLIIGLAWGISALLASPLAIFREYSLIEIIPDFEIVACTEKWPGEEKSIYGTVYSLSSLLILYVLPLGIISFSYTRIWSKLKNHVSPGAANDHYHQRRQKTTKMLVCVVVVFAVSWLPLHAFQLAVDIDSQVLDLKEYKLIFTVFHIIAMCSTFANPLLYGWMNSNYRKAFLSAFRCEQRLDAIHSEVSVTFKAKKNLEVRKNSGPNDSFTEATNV

[7] = target: T3, Neuropeptide Y receptor type 1 (Homo sapiens, UniProt P25929); format: functional;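 also: HEK293 cells with a CNG channel challenged with NPY then isoproterenol; potency as antagonist that reverses NPY suppression of cAMP signal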
T3 sequence (P25929 whole entry): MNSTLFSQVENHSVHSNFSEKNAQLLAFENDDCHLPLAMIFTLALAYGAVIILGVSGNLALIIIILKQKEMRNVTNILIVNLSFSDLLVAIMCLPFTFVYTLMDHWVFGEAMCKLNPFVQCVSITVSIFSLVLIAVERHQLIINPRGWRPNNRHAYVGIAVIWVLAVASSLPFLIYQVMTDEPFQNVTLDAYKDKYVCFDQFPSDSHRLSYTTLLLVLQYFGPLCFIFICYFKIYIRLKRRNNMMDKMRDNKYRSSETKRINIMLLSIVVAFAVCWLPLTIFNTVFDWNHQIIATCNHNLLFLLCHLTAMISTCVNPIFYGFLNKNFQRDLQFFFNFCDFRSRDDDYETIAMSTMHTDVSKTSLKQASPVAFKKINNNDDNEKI

[8] = target: Transitional endoplasmic reticulum ATPase (Homo sapiens, UniProt P55072); assay: Luminescence dose response biochemical high throughput screening assay for inhibitors of the p97 ATPase: synthesized compounds. [Related pubchem assays: 1481, 1517 ]
[9] = target: Transitional endoplasmic reticulum ATPase (Homo sapiens, UniProt P55072, C522A); assay: Luminescence counterscreen assay for p97 inhibitors: dose response biochemical high throughput screening assay to identify inhibitors of the C522A mutant p97 ATPase: synthesized compounds. [Related pubchem assays: 1481, 1517, 1551 ]
Sequence of Transitional endoplasmic reticulum ATPase (Homo sapiens, UniProt P55072, C522A) (P55072 2-806 C522A limits assumed): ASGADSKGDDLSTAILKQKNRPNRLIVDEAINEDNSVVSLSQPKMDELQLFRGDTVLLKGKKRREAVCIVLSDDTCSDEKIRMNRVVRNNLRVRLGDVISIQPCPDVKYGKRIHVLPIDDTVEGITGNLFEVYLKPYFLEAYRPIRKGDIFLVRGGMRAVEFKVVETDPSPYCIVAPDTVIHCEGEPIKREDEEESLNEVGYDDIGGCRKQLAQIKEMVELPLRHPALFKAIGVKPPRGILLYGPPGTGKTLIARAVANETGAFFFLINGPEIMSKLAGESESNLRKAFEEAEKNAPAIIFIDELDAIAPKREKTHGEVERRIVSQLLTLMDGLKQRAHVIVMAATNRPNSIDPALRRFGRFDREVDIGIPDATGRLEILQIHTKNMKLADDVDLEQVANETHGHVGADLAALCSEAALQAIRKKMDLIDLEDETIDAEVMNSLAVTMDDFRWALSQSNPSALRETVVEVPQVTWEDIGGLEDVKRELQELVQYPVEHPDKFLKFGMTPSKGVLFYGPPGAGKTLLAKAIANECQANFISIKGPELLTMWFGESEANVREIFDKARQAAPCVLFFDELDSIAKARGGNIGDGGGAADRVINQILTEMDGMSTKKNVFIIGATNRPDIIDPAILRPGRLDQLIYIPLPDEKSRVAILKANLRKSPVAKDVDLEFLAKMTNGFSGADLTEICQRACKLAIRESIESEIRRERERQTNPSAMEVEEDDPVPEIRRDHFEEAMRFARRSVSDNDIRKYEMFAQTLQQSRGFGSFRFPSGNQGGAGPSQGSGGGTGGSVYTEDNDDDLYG

[10] = target: T4, Orexin/Hypocretin receptor type 1 (Homo sapiens, UniProt O43613); assay: Fluorescence-based cell-based high throughput dose response assay for antagonists of the orexin 1 receptor (OX1R; HCRTR1). [Related pubchem assays (depositor defined):AID434989, AID435008, AID463079, AID485270, AID492963, AID492964, AID492965, AID493232, AID504717, AID504718]; format: functional
T4 sequence (O43613 whole entry): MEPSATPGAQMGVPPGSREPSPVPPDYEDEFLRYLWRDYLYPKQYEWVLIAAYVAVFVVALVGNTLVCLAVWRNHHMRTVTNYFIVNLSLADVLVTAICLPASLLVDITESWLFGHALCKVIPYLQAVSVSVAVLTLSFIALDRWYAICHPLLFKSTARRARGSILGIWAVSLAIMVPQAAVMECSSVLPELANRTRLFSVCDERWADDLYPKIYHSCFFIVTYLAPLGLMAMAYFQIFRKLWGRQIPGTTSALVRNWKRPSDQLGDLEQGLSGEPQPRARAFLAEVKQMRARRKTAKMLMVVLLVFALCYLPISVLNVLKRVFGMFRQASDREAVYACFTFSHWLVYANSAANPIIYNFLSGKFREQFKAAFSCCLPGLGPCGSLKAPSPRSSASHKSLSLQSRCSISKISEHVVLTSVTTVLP

[11] = target: T5, Orexin receptor type 2 (Homo sapiens, UniProt O43614); assay: Counterscreen assay for antagonists of the orexin 1 receptor (OX1R; HCRTR1): Homogeneous Time Resolved Fluorescence (HTRF)-based cell-based dose response assay for antagonists of the orexin 2 receptor (OX2R; HCRTR2), run by assay provider.; format: functional
T5 sequence (O43614 whole entry): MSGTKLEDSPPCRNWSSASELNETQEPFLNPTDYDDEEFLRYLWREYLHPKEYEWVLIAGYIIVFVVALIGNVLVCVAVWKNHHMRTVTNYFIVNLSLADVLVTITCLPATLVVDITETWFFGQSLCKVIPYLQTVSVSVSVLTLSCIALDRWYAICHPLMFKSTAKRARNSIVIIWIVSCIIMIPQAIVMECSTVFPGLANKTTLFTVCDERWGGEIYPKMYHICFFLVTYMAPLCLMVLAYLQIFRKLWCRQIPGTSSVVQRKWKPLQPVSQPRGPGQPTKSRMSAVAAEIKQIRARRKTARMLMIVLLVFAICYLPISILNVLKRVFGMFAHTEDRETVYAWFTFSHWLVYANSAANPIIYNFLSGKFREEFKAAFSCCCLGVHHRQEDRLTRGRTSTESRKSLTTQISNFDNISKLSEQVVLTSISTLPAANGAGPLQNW

[12] = target: Voltage-gated inwardly rectifying potassium channel KCNH2 (Homo sapiens, UniProt Q12809); assay: hERG protection from proarrhythmic block, potency, dose response, cell-based, thallium flux (AID 2121); format: ADME
Sequence of Voltage-gated inwardly rectifying potassium channel KCNH2 (Q12809 whole entry): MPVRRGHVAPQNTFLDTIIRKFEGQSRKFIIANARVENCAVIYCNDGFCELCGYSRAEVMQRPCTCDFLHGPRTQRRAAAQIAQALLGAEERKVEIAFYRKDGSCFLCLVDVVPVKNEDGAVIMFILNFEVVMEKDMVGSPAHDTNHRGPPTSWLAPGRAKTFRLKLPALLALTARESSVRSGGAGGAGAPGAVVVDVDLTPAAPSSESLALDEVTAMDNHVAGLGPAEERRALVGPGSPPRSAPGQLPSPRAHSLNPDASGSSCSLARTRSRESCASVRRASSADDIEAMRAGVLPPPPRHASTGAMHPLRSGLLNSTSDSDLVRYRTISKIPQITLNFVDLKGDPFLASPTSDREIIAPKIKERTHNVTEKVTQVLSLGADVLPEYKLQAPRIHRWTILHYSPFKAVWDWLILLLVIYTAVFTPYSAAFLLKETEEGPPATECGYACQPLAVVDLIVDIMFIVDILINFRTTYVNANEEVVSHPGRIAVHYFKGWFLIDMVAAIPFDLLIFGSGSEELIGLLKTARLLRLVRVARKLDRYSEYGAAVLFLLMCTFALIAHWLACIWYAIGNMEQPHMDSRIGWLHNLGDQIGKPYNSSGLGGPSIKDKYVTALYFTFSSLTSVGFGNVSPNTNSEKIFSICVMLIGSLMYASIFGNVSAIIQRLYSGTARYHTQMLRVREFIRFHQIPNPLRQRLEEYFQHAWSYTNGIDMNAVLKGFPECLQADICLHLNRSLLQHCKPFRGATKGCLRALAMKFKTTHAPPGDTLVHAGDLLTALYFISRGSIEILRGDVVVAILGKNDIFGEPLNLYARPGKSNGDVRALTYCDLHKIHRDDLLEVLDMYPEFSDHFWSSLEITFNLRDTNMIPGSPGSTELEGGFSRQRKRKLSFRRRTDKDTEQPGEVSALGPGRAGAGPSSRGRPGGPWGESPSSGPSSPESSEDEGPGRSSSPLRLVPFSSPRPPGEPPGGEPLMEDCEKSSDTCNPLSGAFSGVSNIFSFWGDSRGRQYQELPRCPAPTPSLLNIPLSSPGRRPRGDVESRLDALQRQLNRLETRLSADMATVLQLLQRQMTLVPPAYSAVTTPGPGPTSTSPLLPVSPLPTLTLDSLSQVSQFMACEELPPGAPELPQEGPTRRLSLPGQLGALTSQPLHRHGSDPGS

[13] = system: CHO-K1; assay: Counterscreen for antagonists of the orexin 1 receptor (OX1R; HCRTR1): Homogeneous time resolved fluorescence (HTRF)-based cell-based dose response assay to identify antagonists of the parental CHO-K1 cell line. [Related pubchem assays (depositor defined):AID434989, AID435008, AID463079, AID485270, AID492963, AID492964, AID492965, AID493232, AID504699, AID504701]; format: functional; conditions: Cricetulus griseus;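 also: potency for inhibition of ATP-stimulated IP1 production as antagonists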
[14] = target: T4, Orexin/Hypocretin receptor type 1; assay: Homogeneous Time Resolved Fluorescence (HTRF)-based cell-based high throughput dose response assay for antagonists of the orexin 1 receptor (OX1R; HCRTR1). [Related pubchem assays (depositor defined):AID434989, AID435008, AID463079, AID485270, AID492963, AID492964, AID492965, AID493232, AID504717, AID504718]; format: functional
[15] = Counterscreen for antagonists of the orexin 1 receptor (OX1R; HCRTR1): Fluorescence-based cell-based high throughput dose response assay to identify antagonists of the parental CHO cell line. [Related pubchem assays (depositor defined):AID434989, AID435008, AID463079, AID485270, AID492963, AID492964, AID492965, AID493232, AID504699, AID504701]; format: functional
[16] = target: T5, Orexin receptor type 2; assay: Counterscreen assay for antagonists of the orexin 1 receptor (OX1R; HCRTR1): Fluorescence-based cell-based dose response assay for antagonists of the orexin 2 receptor (OX2R; HCRTR2), run by assay provider.; format: functional
[17] = target: T2, Neuropeptide Y receptor type 2; assay: NPY-Y2 antagonist potency, selectivity check, dose response, counter-screen for NPY-Y1 antagonist project, cell-based (AID 1278); format: functional
[18] = target: T3, Neuropeptide Y receptor type 1; assay: NPY-Y1 receptor antagonist potency, dose response, cell-based (AID 1277); format: functional
[19] = target: T6, Streptokinase A (Streptococcus pyogenes serotype M1, UniProt P10520); assay: S. pyogenes streptokinase expression inhibitors, potency, dose response, plasminogen activation absorbance, OD405 (AID 1914); format: functional, Streptococcus pyogenes M1 GAS;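 also: secreted streptokinase activity via plasminogen activation per viability signal from cell pellet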
T6 sequence (P10520 whole entry): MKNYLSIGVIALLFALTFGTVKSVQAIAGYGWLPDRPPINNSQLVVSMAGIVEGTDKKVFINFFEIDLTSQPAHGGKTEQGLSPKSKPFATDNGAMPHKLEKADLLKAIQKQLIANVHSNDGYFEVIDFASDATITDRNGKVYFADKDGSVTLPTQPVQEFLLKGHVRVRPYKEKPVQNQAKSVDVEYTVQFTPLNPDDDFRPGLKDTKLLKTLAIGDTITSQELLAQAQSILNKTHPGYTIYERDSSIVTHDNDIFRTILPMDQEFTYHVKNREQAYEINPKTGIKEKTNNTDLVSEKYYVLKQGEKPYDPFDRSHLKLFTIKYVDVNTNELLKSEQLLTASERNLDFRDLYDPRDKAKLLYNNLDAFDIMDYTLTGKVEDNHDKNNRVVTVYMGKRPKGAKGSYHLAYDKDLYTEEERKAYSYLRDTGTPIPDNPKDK

[20] = system: Streptococcus; assay: Group A Streptococcus viability loss, dose response, counter-screen for streptokinase expression inhibitor project, luminescence, BacTiterGlo (AID 1915); format: functional, organism-based;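 also: potency for reduction of bacterial viability or growth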
[21] = system: Streptococcus sp. 'group A'; assay: growth inhibition of control SK(-) GAS strain, dose response, counter-screen for streptokinase expression inhibitor project, luminescence, kanamycin, BacTiterGlo, confirmation (AID 1900); format: functional, organism-based
[22] = target: Large T antigen (Simian virus 40, UniProt P03070); format: functional, Betapolyomavirus macacae;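 also: Confirmatory-stage PubChem screen for compounds that inhibit SV40 T antigen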
Sequence of Large T antigen (P03070 whole entry): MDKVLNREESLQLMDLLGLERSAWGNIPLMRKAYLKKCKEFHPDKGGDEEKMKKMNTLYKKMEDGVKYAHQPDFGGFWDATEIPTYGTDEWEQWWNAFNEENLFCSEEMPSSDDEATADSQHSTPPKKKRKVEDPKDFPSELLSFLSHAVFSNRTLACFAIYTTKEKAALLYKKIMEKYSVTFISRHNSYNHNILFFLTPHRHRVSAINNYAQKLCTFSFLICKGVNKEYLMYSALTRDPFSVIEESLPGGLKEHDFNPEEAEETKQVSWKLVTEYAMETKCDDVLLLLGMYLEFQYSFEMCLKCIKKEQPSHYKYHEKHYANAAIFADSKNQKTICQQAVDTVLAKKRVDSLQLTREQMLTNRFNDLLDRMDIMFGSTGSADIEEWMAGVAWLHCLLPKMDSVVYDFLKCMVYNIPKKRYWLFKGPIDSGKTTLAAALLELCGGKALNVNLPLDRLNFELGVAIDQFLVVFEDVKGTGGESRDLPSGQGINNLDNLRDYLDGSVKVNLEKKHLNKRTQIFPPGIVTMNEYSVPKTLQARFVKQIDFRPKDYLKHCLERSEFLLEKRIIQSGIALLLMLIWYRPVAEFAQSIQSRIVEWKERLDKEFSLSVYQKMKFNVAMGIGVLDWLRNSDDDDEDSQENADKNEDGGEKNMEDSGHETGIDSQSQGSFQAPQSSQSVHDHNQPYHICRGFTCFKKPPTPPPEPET

[23] = Vero cell cytotoxicity, dose response, cytotoxicity control for Vif-APOBEC3G degradation inhibitor project, Vero cells (AID 1117358); format: functional; conditions: Human immunodeficiency virus 1, Vero
[24] = inhibitors of Vif binding to APOBEC3G peptide, primary screen, biochemical, TR-FRET, GST-Vif 1-94, biotin-A3G peptide, dose response retest (AID 1117319); format: functional;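 also: TR-FRET signal of purified GST-Vif binding a biotinylated A3G peptide; inhibitors lower the FRET signal by blocking Vif and A3G binding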
[25] = target: T7, Mannose-6-phosphate isomerase (Homo sapiens, UniProt P34949); assay: human PMI inhibitors, high substrate, primary screen, biochemical, fluorescence intensity, high mannose 6-phosphate (AID 1220)
T7 sequence (P34949 whole entry): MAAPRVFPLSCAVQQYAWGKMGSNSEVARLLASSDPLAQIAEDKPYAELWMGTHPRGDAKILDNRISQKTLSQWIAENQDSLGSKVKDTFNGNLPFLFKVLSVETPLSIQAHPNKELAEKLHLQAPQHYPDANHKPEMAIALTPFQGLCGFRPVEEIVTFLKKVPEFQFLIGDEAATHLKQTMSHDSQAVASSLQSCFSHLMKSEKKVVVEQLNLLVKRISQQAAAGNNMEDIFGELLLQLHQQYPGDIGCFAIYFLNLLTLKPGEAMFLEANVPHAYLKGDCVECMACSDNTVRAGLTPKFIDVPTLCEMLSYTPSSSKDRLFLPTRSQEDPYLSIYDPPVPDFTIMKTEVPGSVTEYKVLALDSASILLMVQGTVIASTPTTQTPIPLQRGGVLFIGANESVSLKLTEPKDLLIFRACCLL

[26] = target: T7, Mannose-6-phosphate isomerase; assay: inhibitors of human PMI, primary screen, biochemical, fluorescence intensity, coupled assay (AID 1209)

CC(C)n1c(O)c(N=Nc2ccc(Cl)c(C(=O)O)c2)c2ccccc21
AC50 [1]: 35.7 µM (active) | EC50 [2]: 3.7 µM (active)

C#CCOc1ccc2c(c1)c(C(C)=O)c(C)n2Cc1ccccc1
CC50 [3]: > 40 µM (active) | IC50 [4]: > 100 µM (active)

Clc1ccc2[nH]cc(-c3nnnn3-c3ccccc3)c2c1
IC50 [5]: > 69.5 µM (not active)

CCOc1nc(SCCOc2ccc(Cl)cc2Cl)nc(N(C)C)n1
IC50 [6]: 5.52 µM (active) | IC50 [7]: 5.54 µM (active)

CCOC(=O)/C(C#N)=C/c1c[nH]c2ccc(C#N)cc12
IC50 [8]: > 50 µM (not active) | IC50 [9]: > 50 µM (not active)

O=C(NC(=S)Nc1nc(-c2ccccc2)cs1)c1ccco1
IC50 [10]: > 49.7 µM (inactive) | IC50 [11]: > 50 µM (inactive) | EC50 [12]: 0.15 µM (active) | IC50 [13]: > 66.2 µM (inactive) | IC50 [14]: 7.37 µM (active) | IC50 [15]: > 49.7 µM (inactive) | IC50 [16]: > 88.8 µM (inactive)

COc1ccc(C(=O)/C(C#N)=N/Nc2cccc([N+](=O)[O-])c2)cc1
IC50 [17]: > 35 µM (not active) | IC50 [18]: > 35 µM (not active) | EC50 [19]: > 150 µM (not active) | EC50 [20]: 94.3 µM (active) | EC50 [21]: 22.8 µM (active)

Oc1ccc(/C=N/NP(=S)(c2ccccc2)c2ccccc2)cc1O
IC50 [22]: 54.9 µM (active) | CC50 [23]: > 40 µM (active) | IC50 [24]: > 100 µM (active) | IC50 [25]: > 50 µM (not active) | IC50 [26]: > 50 µM (not active)

Reference: ChEMBL document CHEMBL1201862, “PubChem BioAssay data set” (2004)
